# US20090197975A1, “COMPOSITIONS FORMULATED FOR SOLVENT-REGULATED DRUG RELEASE” (MIV Therapeutics Inc., priority 2005, published 2009)
# Assay: Paclitaxel composition droplets immersed in PBS for 72 hours (FIG. 3)
# Assay type: physicochemical
# Conditions: 72 hours in PBS; DENA and DMSO present as solubilizing agents
# Source text: FIG. 3 is two photographs comparing three drug compositions formulated in accordance with the invention. Each composition comprises the drug paclitaxel formulated with different compositional ratios of solvents, namely a first solvent comprising a mixture of 70% DENA and 30% DMSO and a second solvent comprising 70% castor oil and 30% soybean oil. The left-hand composition comprises 70% of the first solvent and 30% of the second solvent; the middle composition comprises 60% of the first solvent and 40% of the second solvent; and the right-hand composition comprises 50% of the first solvent and 50% of the second solvent.
# In the example of FIG. 3, the release profile of a composition 10 comprising the water-insoluble lipophilic drug paclitaxel was investigated. Paclitaxel is a well-known chemotherapy agent. FIG. 3 compares three drug compositions comprising paclitaxel formulated with different compositional ratios of first and second solvents 14, 18. The concentration of paclitaxel is maintained at 20 weight percent in first solvent 14. In this example, first solvent 14 comprises a mixture of 70% DENA and 30% DMSO and second solvent 18 comprises 70% castor oil and 30% soybean oil. […]
structure (smiles),measurement,value
CC(=O)O[C@H]1C(=O)[C@@]2(C)[C@H]([C@H](OC(=O)c3ccccc3)[C@]3(O)C[C@H](OC(=O)[C@H](O)[C@@H](NC(=O)c4ccccc4)c4ccccc4)C(C)=C1C3(C)C)[C@]1(OC(C)=O)CO[C@@H]1C[C@@H]2O [paclitaxel],paclitaxel precipitate visually detected in the PBS,No white precipitate
